Where two headings read alike, the source gives them in different places.
Legend:
[1] = system: Plasmodium falciparum W2 strain; assay: In vitro antimalarial activity, SYBR Green I fluorescence-based method, PfW2; assay type: cell-based; conditions: for IC50: Plasmodium falciparum, W2, SYBR Green I, 48 h incubation, CQ-resistant strain, 1a-b re-assayed here, mean ± SD of three experiments; for Eudysmic Ratio PfW2: ratio of IC50s of the enantiomer pair, eutomer configuration in parentheses
From the text: (§1) IC50s, corresponding to in vitro antimalarial activity against PfW2 and Pf3D7, was previously determined for compounds 2a-b, 3a-b and reference molecules using the SYBR Green I fluorescence-based method. As compounds 1a-b were previously screened using the hypoxanthine-tritied method, they were here re-assayed with the SYBR Green I fluorescence-based method described elsewhere for comparison with the other two Series (2 and 3) and reference molecules. When possible, eudysmic ratios were calculated. The SYBR green I fluorescence-based method is detailed below.
(§2) Compounds were dissolved in DMSO and then diluted in sterile water in order to obtain a range of concentrations from 40 nM to […] for the first screening against culture-adapted Plasmodium falciparum reference strains 3D7 and W2. […] These two strains were obtained from the collection of the National Museum of Natural History (Paris, France). The parasites were cultivated in RPMI medium (Sigma-Aldrich, Saint Quentin Fallavier, France) supplemented with 0.5% Albumax I (Life Technologies Corporation, Paisley, UK), hypoxanthine (Sigma-Aldrich, Saint Quentin Fallavier, France) and gentamicin (Sigma-Aldrich, Saint Quentin Fallavier, France) with human erythrocytes and were incubated at 37 °C with 5% CO2 [26]. The P. falciparum drug susceptibility test was carried out in 96-well flat-bottomed sterile plates in a final volume of 250 μL. After a 48 h incubation period with the drugs, quantities of DNA in treated and control cultures of parasites in human erythrocytes were quantified using the SYBR Green I (Sigma-Aldrich, Saint Quentin Fallavier, France) fluorescence-based method. Briefly, after incubation, the plates were frozen at −20 °C until use. The plates were then thawed for 2 h at room temperature, and 100 μL of each homogenized culture was transferred to a well of a 96-well flat-bottomed sterile black plate (Sigma-Aldrich, Saint Quentin Fallavier, France) that contained 100 μL of the SYBR Green I lysis buffer (2xSYBR Green, 20 mM Tris base pH 7.5, 5 mM EDTA, 0.008% w/v saponin, 0.08% w/v Triton X-100). Negative controls treated with solvent (typically DMSO or H2O) and positive controls (CQ and MQ) were added to each set of experiments. Plates were incubated for 1 h at room temperature and then read on a fluorescence plate reader (Tecan Trading AG, Männedorf, Switzerland) using excitation and emission wavelengths of 485 and 535 nm, respectively.

[2] = system: Plasmodium falciparum 3D7 strain; assay: In vitro antimalarial activity, SYBR Green I fluorescence-based method, Pf3D7; assay type: cell-based; conditions: for IC50: Plasmodium falciparum, 3D7, SYBR Green I, 48 h incubation, strain with decreased susceptibility to MQ, 1a-b re-assayed here, mean ± SD of three experiments; for Eudysmic Ratio Pf3D7: ratio of IC50s of the enantiomer pair, eutomer configuration in parentheses
From the text: as §1, §2

β-hematin formation = assay: Inhibition of β-hematin formation; assay type: biochemical; conditions: for Inhibition (%) of β-hematin formation at 2 mM: 24 h at 37 °C, versus negative control, mean ± SD of three experiments; for IC50: concentration range 0–2 mM, determined graphically
Method: Briefly, 100 μL of a fresh 6.5 mM solution of hemin (Sigma-Aldrich, SaintQuentin Fallavier, France) dissolved in 0.2 M NaOH was mixed with 100 μL of 3 M sodium acetate, 25 μL of 17.4 M acetic acid and 25 μL of the tested drug or controls (water and MeOH/DMSO). Magnetic stirring of the solution was used to avoid sedimentation. After 24 h incubation at 37 °C under shaking, the supernatant resulting from centrifugation for 15 min at 3300× g was discarded. The pellet was washed twice with 200 μL DMSO. After a final wash with water, the pellet was dissolved in 200 μL with 0.1 M NaOH. After a further 1:30 dilution, absorption at 405 nm was read using a microplate photometer (Multiskan® EX, Thermo Scientific, Waltham, MA, USA). CQ, MQ, ENP (considered as positive controls), water and MeOH/DMSO (considered as negative controls) were included in each experiment. […] Statistical significance was defined as a value of p ≤ 0.05.

[3] = In vitro cytotoxicity, MTT assay on HepG2; assay type: cell-based, human; conditions: human, HepG2 cells; MTT, 72 h incubation; mean ± SD of three experiments
Method: (§3) Briefly, in 96-well plates, 100 µL of a cell culture adjusted to 25,000 cells/mL was dispensed and the plates were incubated at 37 °C in a humidified 5% CO2 atmosphere for 24 h to allow the cells to adhere to the bottom of the wells. After microscopic verification of the adherent cells, the culture medium was removed and replaced with 100 μL of medium with the compounds at various concentrations dissolved in DMSO (final concentration less than 0.5% v/v), and the plates were incubated for 72 h at 37 °C. Controls were DMSO in medium (0.5% v/v) without compound as blank. Then, the supernatant from each well was removed prior to the addition of 100 µL of 3-(4,5-dimethyl-2-thiazolyl)-2,5-diphenyl-2H-tetrazolium bromide (MTT) solution (0.5 mg/mL in culture medium) per well. After 2 h of incubation, the supernatant from each well was removed and 100 µL of DMSO was added to dissolve the resulting blue formazan crystals accumulated at the bottom of the wells. The plates were incubated for 5 min at 37 °C in a humidified 5% CO2 atmosphere. Then, the wells were homogenized by shaking the plates for 10 min with a microplate shaker. The absorbance was read using the Tecan’s Sunrise™ absorbance microplate reader at 570 nm with 630 nm as the reference wavelength. […] Selectivity index (SI) was calculated and defined as the ratio between CC50 values on HepG2 and IC50.

HepG2 cell line = assay: In vitro cytotoxicity, MTT assay on HepG2; assay type: cell-based, human; conditions: for Selectivity Index HepG2/3D7: CC50 on HepG2 / IC50 against Pf3D7; for SI times higher than that of parental drug MQ: versus MQ
Method: as §3

[4] = system: Plasmodium falciparum W2 strain; set-up: method as in earlier work; conditions: SYBR Green I, CQ-resistant strain; previously determined for 2a-b, 3a-b and reference molecules; read-out: IC50 PfW2; cited from earlier work
[5] = system: Plasmodium falciparum 3D7 strain; set-up: method as in earlier work; conditions: SYBR Green I, strain with decreased susceptibility to MQ; previously determined for 2a-b, 3a-b and reference molecules; read-out: IC50 Pf3D7; cited from earlier work
hemozoin formation = conditions: according to different studies; cited from earlier work
PfD6 = system: PfD6; set-up: method as in PMID 8513873; conditions: Figure 1; cited from earlier work
PfW2 = system: PfW2; set-up: method as in PMID 8513873; conditions: Figure 1; cited from earlier work
Plasmodium falciparum = system: Plasmodium falciparum; set-up: method as in PMID 8513873; conditions: Figure 1, (S,R) vs (R,S) MQ, (+)- vs (-)-ENP; cited from earlier work

Row | SMILES | IC50 [1] [µM] | Eudysmic Ratio PfW2 [1] | IC50 [2] [µM] | Eudysmic Ratio Pf3D7 [2] | Inhibition (%) of β-hematin formation at 2 mM (β-hematin formation) | IC50 (β-hematin formation) [µM] | CC50 at 72 h [3] [µM] | Selectivity Index HepG2/3D7 (HepG2 cell line) | SI times higher than that of parental drug MQ (HepG2 cell line) | IC50 [4] [µM] | IC50 [5] [µM] | inhibition of in vitro hemozoin formation (hemozoin formation) | IC50 (PfD6) [µM] | IC50 (PfW2) [µM] | IC50 ratio between enantiomers (Plasmodium falciparum)
1 | CCCCNC[C@@H](O)c1cc(C(F)(F)F)nc2c(C(F)(F)F)cccc12 [1a] | 0.005 ± 0.0003 | 1.46 (S) | 0.0151 ± 0.0033 | 1 | 81.8 ± 8.4% | 1170 ± 320 | 25.6 ± 2.7 | 1695 | 15–23 times |  |  |  |  |  | 
2 | CCCCNC[C@H](O)c1cc(C(F)(F)F)nc2c(C(F)(F)F)cccc12 [1b] | 0.0073 ± 0.0009 | 1.46 (S) | 0.0151 ± 0.0034 | 1 | 71.3 ± 10.3% | 1310 ± 540 | 37.8 ± 1.9 | 2503 | 15–23 times |  |  |  |  |  | 
3 | CCCCNC[C@@H](O)c1cc(-c2ccc(C(F)(F)F)cc2)nc(C(F)(F)F)c1 [2a] |  | 1.1 (S) |  | 1.2 (S) | 73.5 ± 18.0% | 1450 ± 300 | 4 ± 0.9 | 87 |  | 0.009 ± 0.0004 | 0.0458 ± 0.0023 |  |  |  | 
4 | CCCCNC[C@H](O)c1cc(-c2ccc(C(F)(F)F)cc2)nc(C(F)(F)F)c1 [2b] |  | 1.1 (S) |  | 1.2 (S) | 54.0 ± 22.7% | 1770 ± 220 | 4 ± 0.7 | 70 |  | 0.01 ± 0.0007 | 0.0567 ± 0.0048 |  |  |  | 
5 | CCCCNC[C@@H](O)c1ccc(-c2ccc(C(F)(F)F)cc2)nc1C(F)(F)F [3a] |  |  |  |  | 48.3 ND ^c % | > 2000 | 11.6 ± 0.7 | 24 |  | 0.132 ± 0.0103 | 0.479 ± 0.0382 |  |  |  | 
6 | CCCCNC[C@H](O)c1ccc(-c2ccc(C(F)(F)F)cc2)nc1C(F)(F)F [3b] |  | 4.0 (S) |  | 2.9 (S) | 40.6 ± 28.3% | > 2000 | > 100 | >72 |  | 0.523 ± 0.0958 | 1.38 ± 0.993 |  |  |  | 
7 | CCN(CC)CCCC(C)Nc1ccnc2cc(Cl)ccc12 (stereo not drawn) [Chloroquine, chloroquine, reference compound] |  |  |  |  |  |  |  |  |  | 0.199 ± 0.027 | 0.0759 ± 0.003 | up to 90% |  |  | 
8 | OC(c1cc(-c2ccc(C(F)(F)F)cc2)nc(C(F)(F)F)c1)C1CCCCN1 (stereo not drawn) [Enpiroline, enpiroline, reference compound] |  |  |  |  | 20.3 ND ^c % | > 2000 | 4.4 ± 0.6 | 204 |  | 0.0115 ± 0.0023 | 0.0216 ± 0.0014 |  | 0.0164 | 0.00285 | 1.15–1.22 times
9 | OC(c1cc(C(F)(F)F)nc2c(C(F)(F)F)cccc12)C1CCCCN1 (stereo not drawn) [Mefloquine, mefloquine, reference compound] |  |  |  |  | 61.3 ± 8.5% |  | 8.6 ± 2.6 |  |  | 0.0318 ± 0.001 | 0.0797 ± 0.0085 |  | 0.0344 | 0.0039 | 
